Data from ChEMBL document CHEMBL3638916, “Substituted 3-arylsulfonyl-pyrazolo[1,5-A]pyrimidines, serotonin 5-HT6 receptor antagonists and methods for the production and use thereof” (2013).

Columns and labels:
[1] = biological target: T1, 5-hydroxytryptamine receptor 6 (Homo sapiens, UniProt P50406); experiment: Functional Assay: Determination of antagonistic activity of compounds of the general formula 1 towards 5-HT6 receptors. Compounds of the general formula 1 were tested for their ability to prevent 5-HT6 receptors activation by serotonin. HEK 293 cells (cells of human embryo's kidney) with artificially expressed 5-HT6 receptor, activation of which by serotonin leads to increasing the concentration of intracellular cAMP, were used. The level of intracellular cAMP was determined using reagent kit LANCE cAMP (PerkinElmer) according to the method described by the manufacturer of the kit [http://las.perkinelmer.com/content/Manuals/MAN_LANCEcAMP384KitUser.pdf]. Effectiveness of the compounds was estimated by their ability to reduce the level of intracellular cAMP induced by serotonin. Table 4 presents IC50 values for the compounds of general formula 1 in the setting of functional assay for serotonin 5-HT6 receptor inhibition. The data given testify their moderate or high antagonistic activity.; format: cell-based
[2] = biological target: T1, 5-hydroxytryptamine receptor 6; experiment: Mol. Pharmacol. 43:320-327, 1993].

T1 sequence (P50406 whole entry): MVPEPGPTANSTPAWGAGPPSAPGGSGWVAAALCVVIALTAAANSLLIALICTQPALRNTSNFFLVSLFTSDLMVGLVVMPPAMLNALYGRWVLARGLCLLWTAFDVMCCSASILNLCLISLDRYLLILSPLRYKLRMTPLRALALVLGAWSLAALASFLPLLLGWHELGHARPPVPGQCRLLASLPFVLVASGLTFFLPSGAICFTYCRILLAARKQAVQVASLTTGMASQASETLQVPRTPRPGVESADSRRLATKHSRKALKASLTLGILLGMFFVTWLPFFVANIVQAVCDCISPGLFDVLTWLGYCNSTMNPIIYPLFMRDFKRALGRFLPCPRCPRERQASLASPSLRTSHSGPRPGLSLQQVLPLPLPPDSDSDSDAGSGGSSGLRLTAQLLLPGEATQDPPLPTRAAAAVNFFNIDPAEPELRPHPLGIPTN

CSc1nn2c(C)c(Br)c(C)nc2c1S(=O)(=O)c1ccccc1
IC50 [1]: 8.4 µM | IC50 [2]: 50 nM
